Legend:
Assay in all cases: ITC
Settings in all cases: 500 mM NaCl, 20 mM MgCl2; 50 mM Tris pH 7.6, 25 °C
[1] = tested on: 1301b_v1 (DNA, aptamer) CGACGTTTGCGATGAGAACGAAGTTCGAAGGTCG
[2] = tested on: wild-type 1301b (DNA, aptamer) ACGACGTTTGCGATGAGAAACGTATGGTTTCGAAGGTCGT
[3] = tested on: 9/10/14/16^OMe (DNA, aptamer, 2'-O-methyl at G9, C10, G14, G16) CGACGTTTGCGATGAGAACGAAGTTCGAAGGTCG

| Compound | binding [1] | KD [1] | also measured |
| --- | --- | --- | --- |
| Cc1cn([C@H]2C[C@H](O)[C@@H](COP(=O)(O)OP(=O)(O)OP(=O)(O)O)O2)c(=O)[nH]c1=O | no | – | – |
| Nc1ccn([C@@H]2O[C@H](COP(=O)(O)OP(=O)(O)OP(=O)(O)O)[C@@H](O)[C@H]2O)c(=O)n1 | no | – | – |
| Nc1nc2c(ncn2[C@@H]2O[C@H](COP(=O)(O)OP(=O)(O)OP(=O)(O)O)[C@@H](O)[C@H]2O)c(=O)[nH]1 | no | – | – |
| Nc1ncnc2c1ncn2[C@@H]1O[C@H](COP(=O)(O)O)[C@@H](O)[C@H]1O | – | 13.2 ± 2.4 µM | – |
| Nc1ncnc2c1ncn2[C@@H]1O[C@H](COP(=O)(O)OP(=O)(O)O)[C@@H](O)[C@H]1O | – | 4.4 ± 0.3 µM | – |
| Nc1ncnc2c1ncn2[C@@H]1O[C@H](COP(=O)(O)OP(=O)(O)OP(=O)(O)O)[C@@H](O)[C@H]1O | – | 1.9 ± 0.1 µM | KD [2]: 2.7 ± 0.6 µM; KD [3]: 3.8 ± 0.4 µM |
| Nc1ncnc2c1ncn2[C@H]1C[C@H](O)[C@@H](COP(=O)(O)OP(=O)(O)OP(=O)(O)O)O1 | – | 3.4 ± 0.2 µM | – |
| O=c1ccn([C@@H]2O[C@H](COP(=O)(O)OP(=O)(O)OP(=O)(O)O)[C@@H](O)[C@H]2O)c(=O)[nH]1 | no | – | – |

Reference: article PMC12377721 (2025)
